Here are results for eleven compounds from patent US7569550B2, “14 and 15 membered ring compounds” (Glaxo Group Limited, priority 2003, dated 2009).

Structures can show the parent of a compound that is named as a salt. Where two headings read alike, the source gives them in different places.

Common to all, as to test: MIC, standard broth dilution method in microtitre
Common to all, as to assay type: cell-based
(In general: Dilution methods test growth across graded concentrations, often in twofold steps.)

Assay [1] has as its system erythromycin resistant strains of Streptococcus pyogenes. How it is done:
(§1) Using a standard broth dilution method in microtitre, compounds were tested for antibacterial activity. The compounds in the above examples gave minimum inhibitory concentrations (MICs) less than 1 microgram per millilitre against erythromycin-sensitive and erythromycin-resistant strains of Streptococcus pneumoniae and Streptococcus pyogenes.

The test system of assay [2] is erythromycin resistant strains of Streptococcus pneumoniae. How it is done:
as §1

A further assay relates to H. influenzae ATCC 49247. The note with it: Haemophilus influenzae, ATCC49247. Here is the method:
as §1
(§2) In addition, the MIC (μg/ml) of test compounds against various organisms was determined including:
(§3) S. aureus Smith ATCC 13709, S. pneumoniae SP030, S. pyogenes 3565, E. faecalis ATCC 29212, H. influenzae ATCC 49247, M. catarrhalis ATCC 23246.

The subject of another assay is E. faecalis ATCC 29212. The note with it: Enterococcus faecalis, ATCC29212. Here is the method:
as §1, §2, §3

The next assay concerns S. pyogenes 3565. Particulars: Streptococcus pyogenes. Here is the method:
as §1, §2, §3

Assay [3] deals with M. catarrhalis ATCC 23246. The note with it: Moraxella catarrhalis, ATCC23246. Here is the method:
as §1, §2, §3

For the next assay, the system named is S. pneumoniae SP030. Particulars: Streptococcus pneumoniae. How it is done:
as §1, §2, §3

In assay [4] the test system is S. aureus Smith ATCC 13709. Particulars: Staphylococcus aureus, ATCC13709. Here is the method:
as §1, §2, §3

Where [5] appears, read: H. influenzae ATCC 49247, read-out: MIC.

For the compound `CC[C@@H]1OC(=O)[C@H](C)[C@H](O[C@H]2C[C@](C)(OC)[C@@H](OCCN(C)CCNc3cc4c(cc3F)c(=O)c(C(=O)O)cn4C3CC3)[C@@H](C)O2)[C@@H](C)[C@H](O[C@H]2O[C@@H](C)C[C@@H](N(C)C)[C@H]2O)[C@](C)(OC)C[C@H](C)C(=O)[C@H](C)[C@H]2OC(=O)O[C@@]12C` [Example 1, 4″-O-(2-{[2-(3-Carboxy-1-cyclopropyl-6-fluoro-4-oxo-1,4-dihydro-quinolin-7-ylamino)-ethyl]-methylamino}-ethyl)-6-O-methyl-erythromycin A 11,12-carbonate bis trifluoroacetate], the MIC is at most 1 µg/mL in assay [1]; at most 1 µg/mL in assay [2]; at most 4 µg/mL against H. influenzae ATCC 49247; at most 1 µg/mL against E. faecalis ATCC 29212; at most 1 µg/mL against S. pyogenes 3565; at most 4 µg/mL in assay [3]. Further, the MIC (in the assay on S. pneumoniae SP030; in assay [4]) was at most 1 µg/mL in each case.
With `CC[C@@H]1OC(=O)[C@H](C)[C@H](O[C@@H]2C[C@](C)(OC)[C@H](OCCCN(C)CCNc3cc4c(cc3F)c(=O)c(C(=O)O)cn4C3CC3)[C@H](C)O2)[C@@H](C)[C@H](O[C@H]2O[C@@H](C)C[C@@H](N(C)C)[C@H]2O)[C@](C)(OC)C[C@H](C)C(=O)[C@H](C)[C@H]2OC(=O)O[C@@]12C` [Example 2, 4″-O-(3-{[2-(3-Carboxy-1-cyclopropyl-6-fluoro-4-oxo-1,4-dihydro-quinolin-7-ylamino)ethyl]-methylamino}-propyl)-6-O-methyl-erythromycin A 11,12-carbonate], the MIC in assay [1] is at most 1 µg/mL; in assay [2], at most 1 µg/mL; with H. influenzae ATCC 49247 (setting [5]), at most 4 µg/mL; with E. faecalis ATCC 29212, at most 1 µg/mL; in the assay on S. pyogenes 3565 it was at most 1 µg/mL; in assay [3], at most 4 µg/mL. Besides, the MIC (in the assay on S. pneumoniae SP030; in assay [4]) was at most 1 µg/mL in each case.
`CC[C@@H]1OC(=O)[C@H](C)[C@H](O[C@@H]2C[C@](C)(OC)[C@H](OCCCNCCSc3ccc4c(c3)c(=O)c(C(=O)O)cn4CC)[C@H](C)O2)[C@@H](C)[C@H](O[C@H]2O[C@@H](C)C[C@@H](N(C)C)[C@H]2O)[C@](C)(OC)C[C@H](C)C(=O)[C@H](C)[C@H]2OC(=O)O[C@@]12C` [Example 4, 4″-O-{3-[2-(3-Carboxy-1-ethyl-4-oxo-1,4-dihydro-quinolin-6-ylsulfanyl)-ethylamino]-propyl}-6-O-methyl-erythromycin A 11,12-carbonate bisformate]: the MIC in assay [1] was at most 1 µg/mL; in assay [2] it was at most 1 µg/mL; in the assay on H. influenzae ATCC 49247 (setting [5]), at most 4 µg/mL; in assay [3] it was at most 4 µg/mL.
As for `CC[C@@H]1OC(=O)[C@H](C)[C@H](O[C@@H]2C[C@](C)(OC)[C@H](OCCCNCCOc3cc4c5c(c3)c(=O)c(C(=O)O)cn5CCC4)[C@H](C)O2)[C@@H](C)[C@H](O[C@H]2O[C@@H](C)C[C@@H](N(C)C)[C@H]2O)[C@](C)(OC)C[C@H](C)C(=O)[C@H](C)[C@H]2OC(=O)O[C@@]12C` [Example 6, 4″-O-{3-[2-(2-Carboxy-1-oxo-6,7-dihydro-1H,5H-pyrido[3,2,1-ij]quinoline-9-yloxy)-ethylamino]-propyl}-6-O-methyl-erythromycin A 11,12-carbonate bisformate], the MIC is at most 1 µg/mL in assay [1]; at most 1 µg/mL in assay [2]; at most 4 µg/mL in the assay with H. influenzae ATCC 49247 (setting [5]); at most 1 µg/mL against E. faecalis ATCC 29212; at most 1 µg/mL against S. pyogenes 3565; at most 4 µg/mL in assay [3]. In addition, the MIC (with S. pneumoniae SP030; in assay [4]) was at most 1 µg/mL in each case.
With `CC[C@@H]1OC(=O)[C@H](C)[C@H](O[C@@H]2C[C@](C)(OC)[C@H](OCCCN(C)CCCc3ccc4c(c3)c(=O)c(C(=O)O)cn4CC)[C@H](C)O2)[C@@H](C)[C@H](O[C@H]2O[C@@H](C)C[C@@H](N(C)C)[C@H]2O)[C@](C)(OC)C[C@H](C)C(=O)[C@H](C)[C@H]2OC(=O)O[C@@]12C` [Example 13, 4″-O-(3-{[3-(3-Carboxy-1-ethyl-4-oxo-1,4-dihydro-quinolin-6-yl)propyl]-methylamino}-propyl)-6-O-methyl-erythromycin A 11,12-carbonate formate], the MIC is at most 1 µg/mL in assay [1]; at most 1 µg/mL in assay [2]; at most 4 µg/mL with H. influenzae ATCC 49247 (setting [5]); at most 1 µg/mL with E. faecalis ATCC 29212; at most 1 µg/mL with S. pyogenes 3565; at most 4 µg/mL in assay [3]. For the same compound, the MIC (in the assay with S. pneumoniae SP030; in assay [4]) was at most 1 µg/mL in each case.
As to `CC[C@@H]1OC(=O)[C@H](C)[C@H](O[C@@H]2C[C@](C)(OC)[C@H](OCCCN(C)CCNc3cc4c(=O)c(C(=O)O)cn(C5CC5)c4cc3Cl)[C@H](C)O2)[C@@H](C)[C@H](O[C@H]2O[C@@H](C)C[C@@H](N(C)C)[C@H]2O)[C@](C)(OC)C[C@H](C)C(=O)[C@H](C)[C@H]2OC(=O)O[C@@]12C` [Example 14, 4″-O-(3-{[2-(3-Carboxy-7-chloro-1-cyclopropyl-4-oxo-1,4-dihydro-quinolin-6-ylamino)ethyl]-methylamino}-propyl)-6-O-methyl-erythromycin A 11,12-carbonate], the MIC is at most 1 µg/mL in assay [1], at most 1 µg/mL in assay [2], at most 4 µg/mL in the assay with H. influenzae ATCC 49247 (setting [5]) and at most 4 µg/mL in assay [3].
Consider `CC[C@@H]1OC(=O)[C@H](C)[C@H](O[C@@H]2C[C@](C)(OC)[C@H](OCCCN(C)CCNc3nc4c(cc3F)c(=O)c(C(=O)O)cn4CC)[C@H](C)O2)[C@@H](C)[C@H](O[C@H]2O[C@@H](C)C[C@@H](N(C)C)[C@H]2O)[C@](C)(OC)C[C@H](C)C(=O)[C@H](C)[C@H]2OC(=O)O[C@@]12C` [Example 15], for which the MIC in assay [1] is at most 1 µg/mL; in assay [2] it was at most 1 µg/mL; in the assay with H. influenzae ATCC 49247 (setting [5]), at most 4 µg/mL; in the assay on E. faecalis ATCC 29212, at most 1 µg/mL; against S. pyogenes 3565, at most 1 µg/mL; in assay [3] it was at most 4 µg/mL. Further, the MIC (against S. pneumoniae SP030; in assay [4]) was at most 1 µg/mL in each case.
In the case of `CC[C@@H]1OC(=O)[C@H](C)[C@H](O[C@@H]2C[C@](C)(OC)[C@H](OCCNCCCc3ccc4c(c3)c(=O)c(C(=O)O)cn4CC)[C@H](C)O2)[C@@H](C)[C@H](O[C@H]2O[C@@H](C)C[C@@H](N(C)C)[C@H]2O)[C@](C)(O)C[C@H](C)CN(C)[C@@H](C)[C@H]2OC(=O)O[C@@]12C` [Example 16, 4″-O-{2-[3-(3-Carboxy-1-ethyl-4-oxo-1,4-dihydro-quinolin-6-yl)propylamino]ethyl}azithromycin 11,12-carbonate], the MIC (in the assay on H. influenzae ATCC 49247 (setting [5]); in assay [3]) was at most 4 µg/mL throughout.
Regarding `CC[C@@H]1OC(=O)[C@H](C)[C@H](O[C@@H]2C[C@](C)(OC)[C@H](OCCNCCNc3nc4c(cc3F)c(=O)c(C(=O)O)cn4CC)[C@H](C)O2)[C@@H](C)[C@H](O[C@H]2O[C@@H](C)C[C@@H](N(C)C)[C@H]2O)[C@](C)(OC)C[C@H](C)C(=O)[C@H](C)[C@H](O)[C@@]1(C)O` [Example 18, 4″-O-{2-[2-(3-Carboxy-1-ethyl-6-fluoro-4-oxo-1,4-dihydro-[1,8]naphthyridin-7-ylamino)ethyl]-amino}-ethyl}-6-O-methyl-erythromycin A monoformate], the MIC is at most 1 µg/mL in assay [1]; at most 1 µg/mL in assay [2]; at most 4 µg/mL with H. influenzae ATCC 49247 (setting [5]); at most 1 µg/mL in the assay with E. faecalis ATCC 29212; at most 1 µg/mL against S. pyogenes 3565; at most 4 µg/mL in assay [3]. Besides, the MIC (against S. pneumoniae SP030; in assay [4]) was at most 1 µg/mL each time.
On to `CC[C@@H]1OC(=O)[C@H](C)[C@H](O[C@@H]2C[C@](C)(OC)[C@H](OCCN(C)CCNc3nc4c(cc3F)c(=O)c(C(=O)O)cn4CC)[C@H](C)O2)[C@@H](C)[C@H](O[C@H]2O[C@@H](C)C[C@@H](N(C)C)[C@H]2O)[C@](C)(OC)C[C@H](C)C(=O)[C@H](C)[C@H](O)[C@@]1(C)O` [Example 19], for which the MIC in assay [1] is at most 1 µg/mL; in assay [2] it was at most 1 µg/mL; in the assay with H. influenzae ATCC 49247 (setting [5]), at most 4 µg/mL; in the assay with E. faecalis ATCC 29212, at most 1 µg/mL; in the assay on S. pyogenes 3565 it was at most 1 µg/mL; in assay [3] it was at most 4 µg/mL. Moreover, the MIC (with S. pneumoniae SP030; in assay [4]) was at most 1 µg/mL in each case.
Take `CC[C@H]1OC(=O)[C@H](C)[C@@H](O[C@H]2C[C@@](C)(OC)[C@@H](OCCCNCCCc3cc4c5c(c3)c(=O)c(C(=O)O)cn5CCC4)[C@H](C)O2)[C@H](C)[C@@H](O[C@@H]2O[C@H](C)C[C@H](N(C)C)[C@H]2O)[C@](C)(OC)C[C@@H](C)C(=O)[C@@H](C)[C@H]2NC(=O)O[C@@]21C` [Example 25, 4″-O-{3-[3-(2-Carboxy-1-oxo-6,7-dihydro-1H,5H-pyrido[3,2,1-ij]quinolin-9-yl)-propylamino]-propyl}-6-O-methyl-11-desoxy-11-(R)-amino-erythromycin A 11,12-carbamate formate]: the MIC (in assay [1]; in assay [2]; against E. faecalis ATCC 29212; against S. pyogenes 3565; against S. pneumoniae SP030; in assay [4]) was at most 1 µg/mL in each case.
